Article PMC4014323, “Structure of tyrosine aminotransferase from Leishmania infantum” (Acta Crystallographica. Section F, Structural Biology …, 2014)

Legend:
LiTAT_truncated [1] = biological target: T1, LiTAT_truncated (Leishmania infantum, UniProt A4IDL0); assay: Diamondstone p-hydroxybenzaldehyde assay; format: biochemical
T1 construct: gene TAT; E. coli BL21(DE3) pLysS; homodimer; model Ser40-Lys448
T1 sequence (A4IDL0 39-448): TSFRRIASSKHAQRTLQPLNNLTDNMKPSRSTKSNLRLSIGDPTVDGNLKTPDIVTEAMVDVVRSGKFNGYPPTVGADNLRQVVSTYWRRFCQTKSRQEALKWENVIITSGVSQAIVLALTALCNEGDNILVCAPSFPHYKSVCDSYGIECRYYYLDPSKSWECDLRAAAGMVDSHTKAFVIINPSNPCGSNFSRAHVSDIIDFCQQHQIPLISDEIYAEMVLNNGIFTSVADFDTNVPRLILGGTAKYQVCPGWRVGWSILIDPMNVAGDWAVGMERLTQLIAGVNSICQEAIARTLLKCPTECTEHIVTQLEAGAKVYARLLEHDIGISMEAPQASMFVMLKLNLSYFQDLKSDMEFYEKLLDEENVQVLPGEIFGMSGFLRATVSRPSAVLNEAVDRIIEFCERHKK

LiTAT_truncated [2] = biological target: T1, LiTAT_truncated; assay: X-ray crystallography, […] A; format: binding; conditions: covalent, internal aldimine at Lys286; crystals at pH 8.5
[3] = biological target: the molecule itself; assay: SEC; HiLoad 26/60 Superdex 75 prep grade, room temperature, 20 mM HEPES pH 7.0, 300 mM NaCl, 5% glycerol, 1 mM TCEP; molecular weight estimated from a calibration curve (Low Molecular Weight Kit)

N[C@@H](Cc1ccc(O)cc1)C(=O)O [tyrosine]
Diamondstone p-hydroxybenzaldehyde assay (LiTAT_truncated [1]; amino donor, co-substrate pyruvate): using tyrosine as the amino donor

CC(=O)C(=O)O [pyruvate]
Diamondstone p-hydroxybenzaldehyde assay (LiTAT_truncated [1]; amino acceptor, co-substrate tyrosine): it can transaminate pyruvate with high efficiency

Cc1ncc(COP(=O)(O)O)c(C=O)c1O [PLP]
X-ray crystallography, 2.35 A (LiTAT_truncated [2]): In both subunits of LiTAT, PLP is covalently bound to Lys286

B1: Leishmania infantum tyrosine aminotransferase, truncated (lacking the first 114 nucleotides of the annotated sequence) (domain or fragment, UniProt A4IDL0 39-448, looked up)
chain: TSFRRIASSKHAQRTLQPLNNLTDNMKPSRSTKSNLRLSIGDPTVDGNLKTPDIVTEAMVDVVRSGKFNGYPPTVGADNLRQVVSTYWRRFCQTKSRQEALKWENVIITSGVSQAIVLALTALCNEGDNILVCAPSFPHYKSVCDSYGIECRYYYLDPSKSWECDLRAAAGMVDSHTKAFVIINPSNPCGSNFSRAHVSDIIDFCQQHQIPLISDEIYAEMVLNNGIFTSVADFDTNVPRLILGGTAKYQVCPGWRVGWSILIDPMNVAGDWAVGMERLTQLIAGVNSICQEAIARTLLKCPTECTEHIVTQLEAGAKVYARLLEHDIGISMEAPQASMFVMLKLNLSYFQDLKSDMEFYEKLLDEENVQVLPGEIFGMSGFLRATVSRPSAVLNEAVDRIIEFCERHKK
modifications: PLP covalently bound to Lys286
notes: residues Ser40-Lys448 built in chain A of the crystal structure; they are worked out from the deletion of the first 114 nucleotides of a protein of 448 amino acids; source: E. coli BL21 (DE3) pLysS, purified (HisTrap FF, Superdex 75 SEC); not shown: His tag (from the vector pRSET-A)
stoichiometry N [3]: 2

B2: Leishmania infantum tyrosine aminotransferase, full length (enzyme, UniProt A4IDL0 1-448, looked up)
chain: MTIDTQAAPAAQTLKAGNSTGSLTEERREVEQQRAAENTSFRRIASSKHAQRTLQPLNNLTDNMKPSRSTKSNLRLSIGDPTVDGNLKTPDIVTEAMVDVVRSGKFNGYPPTVGADNLRQVVSTYWRRFCQTKSRQEALKWENVIITSGVSQAIVLALTALCNEGDNILVCAPSFPHYKSVCDSYGIECRYYYLDPSKSWECDLRAAAGMVDSHTKAFVIINPSNPCGSNFSRAHVSDIIDFCQQHQIPLISDEIYAEMVLNNGIFTSVADFDTNVPRLILGGTAKYQVCPGWRVGWSILIDPMNVAGDWAVGMERLTQLIAGVNSICQEAIARTLLKCPTECTEHIVTQLEAGAKVYARLLEHDIGISMEAPQASMFVMLKLNLSYFQDLKSDMEFYEKLLDEENVQVLPGEIFGMSGFLRATVSRPSAVLNEAVDRIIEFCERHKK
notes: Tyrosine aminotransferase of Leishmania infantum (MHOM/ES/98/10445), full-length gene LinJ.36.2490 encoding 448 amino acids; Cloned BamHI/HindIII into pRSET-A; PLP (4 uM) was in the lysis and IMAC buffers; also called LiTAT; TAT; source: E. coli BL21 (DE3) pLysS, purified (HisTrap FF, Superdex 75 SEC); not shown: His tag (from the vector pRSET-A)
stoichiometry N [3]: 2
